{"source": "ChEMBL document CHEMBL5214900", "about": "“Design, Synthesis, and Biological Evaluation of Membrane-Active Bakuchiol Derivatives as Effective Broad-Spectrum Antibacterial Agents” (J Med Chem, 2021)", "key": {"Escherichia coli [1]": {"test_system": "Escherichia coli", "assay": "Antibacterial activity against Escherichia coli ATCC 25922 assessed as eradication of preformed bacterial biofilm by measuring residual biofilm viability at […] ug/ml incubated for 24 hrs by crystal violet staining based assay relative to control", "assay_type": "functional", "settings": "dose […] microg/ml, 1.56 ug/mL"}, "Cell membrane": {"test_system": "Cell membrane", "assay": "Disruption of membrane integrity in Pseudomonas aeruginosa ATCC 9027 assessed as increase in fluorescence intensity at 1 to 8 times MIC by SYTOX green dye based fluorescence analysis", "assay_type": "subcellular", "settings": "DDE = dose-dependent effect"}, "Staphylococcus aureus [2]": {"test_system": "Staphylococcus aureus", "assay": "Antibacterial activity against Staphylococcus aureus ATCC 29213 assessed as eradication of preformed bacterial biofilm by measuring residual biofilm viability at 12.5 ug/ml incubated for 24 hrs by crystal violet staining based assay relative to control", "assay_type": "functional", "settings": "dose 12.5 µg/ml"}, "Staphylococcus aureus [3]": {"test_system": "Staphylococcus aureus", "assay": "Antibacterial activity against Staphylococcus aureus ATCC 29213 assessed as eradication of preformed bacterial biofilm by measuring residual biofilm viability at 25 ug/ml incubated for 24 hrs by crystal violet staining based assay relative to control", "assay_type": "functional", "settings": "dose 25 µg/ml"}, "Lipopolysaccharide (LPS)": {"test_system": "Lipopolysaccharide (LPS)", "assay": "Displacement of BODIPY-TR-cadaverine from Escherichia coli Lipopolysaccharide at 8 times MIC measured for 30 mins by fluorescence based microplate reader assay relative to control"}, "[4]": {"assay": "Cytotoxicity against mouse NCTC clone 929 cells assessed as cell viability at 50 ug/ml incubated for 24 hrs by CCK-8 assay relative to control", "assay_type": "toxicity, cell-based", "settings": "at 50 µg/mL, read-out: Activity"}, "Escherichia coli [5]": {"test_system": "Escherichia coli", "assay": "Bactericidal activity against Escherichia coli ATCC 25922 assessed as log reduction in viable bacteria at 4 times MIC measured after 2 hrs by time-killing assay", "assay_type": "functional"}, "[6]": {"assay": "Cytotoxicity against mouse NCTC clone 929 cells assessed as cell viability at 3.125 ug/ml incubated for 24 hrs by CCK-8 assay relative to control", "assay_type": "toxicity, cell-based", "settings": "at 3.125 µg/mL, read-out: Activity"}, "Staphylococcus aureus [7]": {"test_system": "Staphylococcus aureus", "assay": "Induction of drug resistance in Staphylococcus aureus ATCC 29213 assessed as fold change in MIC measured after 19 passages by CLSI based broth dilution method", "assay_type": "functional"}, "Staphylococcus aureus [8]": {"test_system": "Staphylococcus aureus", "assay": "Bactericidal activity against Staphylococcus aureus ATCC 29213 assessed as log reduction in viable bacteria at 8 times MIC measured after 8 hrs by time-killing assay", "assay_type": "functional"}, "Klebsiella pneumoniae": {"test_system": "Klebsiella pneumoniae", "assay": "Antibacterial activity against Klebsiella pneumoniae ATCC 10031 assessed as inhibition of bacterial growth incubated for 24 hrs by CLSI based broth dilution method", "assay_type": "functional"}, "Lipoteichoic acid": {"test_system": "Lipoteichoic acid", "assay": "Displacement of BODIPY-TR-cadaverine from Bacillus subtilis Lipoteichoic acid at 2 times MIC measured for 30 mins by fluorescence based microplate reader assay relative to control"}, "[9]": {"assay": "Cytotoxicity against HEK293 cells assessed as cell viability at 25 ug/ml incubated for 24 hrs by CCK-8 assay relative to control", "assay_type": "toxicity, cell-based", "settings": "human, at 25 µg/mL, read-out: Activity"}, "[10]": {"assay": "Cytotoxicity against mouse NCTC clone 929 cells assessed as cell viability at 6.25 ug/ml incubated for 24 hrs by CCK-8 assay relative to control", "assay_type": "toxicity, cell-based", "settings": "at 6.25 µg/mL, read-out: Activity"}, "Staphylococcus aureus [11]": {"test_system": "Staphylococcus aureus", "assay": "Antibiofilm activity against Staphylococcus aureus ATCC 29213 assessed reduction in biofilm formation at 6.25 ug/ml measured after 24 hrs by crystal violet staining based assay relative to control", "assay_type": "functional", "parameters": "scale not given: the % may be the effect or the level left", "settings": "dose 6.25 µg/ml"}, "Escherichia coli [12]": {"test_system": "Escherichia coli", "assay": "Antibacterial activity against Escherichia coli ATCC 25922 assessed as eradication of preformed bacterial biofilm by measuring residual biofilm viability at 25 ug/ml incubated for 24 hrs by crystal violet staining based assay relative to control", "assay_type": "functional", "settings": "dose 25 µg/ml"}, "Escherichia coli [13]": {"test_system": "Escherichia coli", "assay": "Antibacterial activity against Escherichia coli ATCC 25922 assessed as eradication of preformed bacterial biofilm by measuring residual biofilm viability at 6.25 ug/ml incubated for 24 hrs by crystal violet staining based assay relative to control", "assay_type": "functional", "settings": "dose 6.25 µg/ml"}, "Escherichia coli [14]": {"test_system": "Escherichia coli", "assay": "Antibacterial activity against Escherichia coli ATCC 25922 assessed as fold increase in MIC incubated for 24 hrs in presence of 4.5 mM K+ by CLSI based broth dilution method", "assay_type": "functional"}, "Escherichia coli [15]": {"test_system": "Escherichia coli", "assay": "Bactericidal activity against Escherichia coli ATCC 25922 assessed as inhibition of bacterial regrowth at 4 to 8 times MIC measured after 24 hrs by time-killing assay", "assay_type": "functional, organism-based"}}, "note": "Calls of active or inactive are those of the source. The calls are words filed in the database; no cut-off is given here.", "data": [{"compound": "C=C[C@@](C)(/C=C/c1ccc(OCCCCN(CCCN(C)C)CCCN(C)C)cc1)CCC=C(C)C", "values": [{"measurement": "Activity", "setting": "Escherichia coli [1]", "value": 69.09, "unit": "%"}, {"measurement": "Activity", "setting": "Cell membrane", "value": "Dde"}, {"measurement": "Activity", "setting": "Staphylococcus aureus [2]", "value": 24.19, "unit": "%"}, {"measurement": "Activity", "setting": "Staphylococcus aureus [3]", "value": 11.49, "unit": "%"}, {"measurement": "Activity", "setting": "Lipopolysaccharide (LPS)", "value": 85.6, "unit": "%"}, {"measurement": "viability at 24 h, 50 ug/ml", "setting": "[4]", "value": 36, "unit": "%"}, {"measurement": "log(activity)", "setting": "Escherichia coli [5]", "value": 4.28}, {"measurement": "viability at 24 h, 3.125 ug/ml", "setting": "[6]", "value": 88.9, "unit": "%"}, {"measurement": "fold change (FC)", "setting": "Staphylococcus aureus [7]", "value": "< 4"}, {"measurement": "log(activity)", "setting": "Staphylococcus aureus [8]", "value": 3.52}, {"measurement": "MIC", "setting": "Klebsiella pneumoniae", "value": 3.12, "unit": "µg/mL"}, {"measurement": "Activity", "setting": "Lipoteichoic acid", "value": 35.3, "unit": "%"}, {"measurement": "viability at 24 h, 25 ug/ml", "setting": "[9]", "value": 63.3, "unit": "%"}, {"measurement": "viability at 24 h, 6.25 ug/ml", "setting": "[10]", "value": 84.9, "unit": "%"}, {"measurement": "Activity", "setting": "Staphylococcus aureus [11]", "value": 98.78, "unit": "%"}, {"measurement": "Activity", "setting": "Escherichia coli [12]", "value": 2.38, "unit": "%"}, {"measurement": "Activity", "setting": "Escherichia coli [13]", "value": 22.69, "unit": "%"}, {"measurement": "fold change (FC)", "setting": "Escherichia coli [14]", "value": "<2"}, {"measurement": "Activity", "setting": "Escherichia coli [15]", "value": "Active"}]}]}
